Reference: patent publication US11248022B2, “Glypican-3 peptide reagents and methods” (THE REGENTS OF THE UNIVERSITY OF MICHIGAN, priority 2017, dated 2022)
Read-outs that look alike come from different tables or passages of the source. Ends that are not written are not given here.

What was measured:
[1] = system: GPC3 positive tumor (from Hep3B cells); assay: In vivo whole body fluorescent imaging of HCC xenograft
Method: Mice bearing HCC xenograft tumor (arrowheads) were i.v. injected with 250 μL of 300 μM near NIR GPC3 targeting peptide ALL*-Cy5.5, scrambled control peptide QLE*-Cy5.5 and unlabeled Cy5.5 free dye alone. ALL*-Cy5.5 was also injected in mice bearing GPC3 negative tumor (from SK Hep-1 cells, arrows) as control of EPR effect. Pre-injection imaging confirmed no autofluorescence was present.

advanced HCC = details: cited from earlier work
[2] = biological target: purified recombinant GPC3 core protein (Homo sapiens, UniProt P51654); assay: Phage display biopanning; format: binding; details: four rounds of biopanning
Method: A panel of candidate peptides that are specific to GPC3 was identified using phage display technology. Peptide selection was performed using a library of M13 bacteriophage that express ˜10^9 unique clones of each individual sequence [Zhou et al., Clin Transl Gastroenterol, 6:e101 (2015); Joshi et al., Bioconjug Chem, 27:481-494 (2016); Rabinsky et al., Cell Mol Gastroenterol Hepatol, 2:222-237 (2016)]. The library was biopanned against purified recombinant GPC3 core protein immobilized in a 6-well plate. Four rounds of biopanning were performed using decreasing quantity (100, 80, 60, and 40 μg) of GPC3 core protein in successive rounds to increase binding specificity. The bound phages were eluted, amplified, precipitated and tittered using standard protocols, and the enriched clones from the candidate pool were sequenced to identify the lead candidates: ALLANHEELF (SEQ ID NO: 2), GLHTSATNLYLH (SEQ ID NO: 3), SGVYKVAYDWQH (SEQ ID NO: 4) and VGVESCASRCNN (SEQ ID NO: 5).

Hep3B cells = assay: Competition for peptide binding on Hep3B cells; format: cell-based, human
Method: The specificity of peptide reagent binding was also validated by competition assay. Hep3B cells were grown on cover glass and incubated first with unlabeled peptides over a range of concentrations (0-500 μM), and then with ALL*-Cy5.5 peptide. The fluorescence intensities were measured using confocal microscopy. […] Differences in fluorescence intensity between the ALL*-Cy5.5 peptide reagent and control are significant at concentrations of 50 μM and greater.

SK-Hep1 xenograft tumors = assay: Immunostaining on GPC3 negative SK-Hep1 xenograft sections; design: species or system mice; details: no GPC3 expression
Source text: FIGS. 18A-D show immunostaining on GPC3 negative HCC xenograft tumor.
(§1) The specimens were also sectioned for collection of confocal images to perform microscopic validation of peptide binding ex vivo.

GPC3 = biological target: T1, GPC3 (Homo sapiens, UniProt P51654); assay: siRNA knockdown of GPC3 in Hep3B cells, confocal fluorescence; format: cell-based; details: Hep3B cells transfected with non-targeting siRNA (siCL)
T1 construct: endogenous in cells; host or cells: Hep3B human HCC cells (siCL control vs siGPC3 knockdown); also HepG2; SK-Hep1 as GPC3-negative control
Method: (§2) FIGS. 6-2A-Q show validation of specific peptide binding to cells in vitro. […] The Hep3B versus SK-Hep1 difference was also larger for antibody than QLE (P=2.3×10^−8, 6.0-fold larger). Intensity was measured with 6 replicates per condition and fitted to an ANOVA model with terms for 9 means to log-transformed data. […] We further validated specific peptide binding to GPC3 using siRNA knockdown. […] Q) Quantified fluorescence intensities. The siCL vs siGPC3 difference was 7.4 times bigger for ALL than the same difference for QLE (P=7.8×10^−5), and the difference for antibody was 8.9 times bigger than for QLE (P=2.5×10^−5), by ANOVA on log-transformed data. Results are an average of 6 images collected independently.
The specificity of lead candidate peptide reagent binding was validated by siRNA knockdown of GPC3 in human HCC cells. The cells were transfected with siRNA to knockdown cell surface expression of GPC3. […] These cells were transfected with non-targeting siRNA (siCL) for use as control. […] FIG. 6-1D,E show ˜4-fold reduction in fluorescence intensity with both the peptide reagent and anti-GPC3 antibody, respectively, for Hep3B cells transfected with siRNA (siGPC3) to knock down GPC3 expression. […] FIG. 6-2M, N, O and P show the same result as original FIG. 6-1A, B, D and E.

[3] = system: HCC xenograft tumor overexpressing GPC3; assay: In vivo handheld dual axes confocal endomicroscope imaging; design: species or system mice
Method: GPC3 expression from human HCC xenograft tumors was evaluated in real time by collecting optical sections in vivo using a handheld 5.5 mm diameter dual axes confocal endomicroscope. A solid-state diode laser (300 mW, CNI Laser Inc.) provided illumination at λex=671 nm. A parabolic mirror focused the illumination and collection beams to overlap below the tissue surface with lateral and axial resolution of 2 and 5 μm, respectively. A compact, 3D monolithic scanner located in the distal tip provided large vertical displacements and wide angular deflections to produce images in the vertical (XZ) and horizontal (XY) planes with a FOV of 1000×430 and 1000×1000 μm^2, respectively. NIR fluorescence is collected and passes through a band pass filter (FF01-716/40-25, Semrock) that transmits from 696-736 nm with >93% efficiency for detection with a photomultiplier tube (PMT, H7422PA-40, Hamamatsu) detector. The peptides were injected via the tail vain, and dissected away the skin overlying the tumor to gain access. The distal tip of the endomicroscope was placed in contact with the tumor using a drop of saline to couple the light. Laser power <2 mW on the tissue was used to avoid photobleaching. NIR fluorescence images were collected at 5 frames per sec. 3D volumetric images were reconstructed from a series of images collected in the vertical plane using Amira software (ver 5.4.3, FEI Corporation).
The probe was small enough to be comfortably held in the surgeon's hand during surgery, FIG. 12A, for in vivo imaging of biomarker expression. Its diameter was 5.5 mm and delivered 671 nm near-infrared laser at 2 mW. Mouse carrying HCC xenograft tumor overexpressing GPC3 was first injected with 250 μL 300 μM ALL*-Cy5.5 peptide intravenously and after 2 hours the probe was held in contact with exposed subcutaneous tumor to acquire in vivo peptide binding images, FIG. 12B. Images were collected in either the vertical or horizontal plane with 430 μm depth or 1000×1000 μm^2 area, respectively, at 5 frames per second. With measured lateral resolution of 2.49 μm and axial resolution of 4.98 μm, each peptide stained cell can be clearly seen (arrows). […] Strong uptake (arrows) of ALL*-Cy5.5 in tumor was captured on optical sections collected in the horizontal (1000×1000 μm^2, Video 1) FIG. 12C and vertical (1000×430 μm^2, Video 2) FIG. 12D planes, respectively. A series of vertical cross-section images were reconstructed into 3D MIP volume (Video 3), FIG. 12E.

Hep3B xenograft tumors = assay: Ex vivo confocal validation on Hep3B xenograft sections and normal liver; design: species or system mice; details: normal mouse liver sections
Source text: as §1

Hep3B human HCC cells = assay: Confocal microscopy of peptide binding to Hep3B cells; format: cell-based; details: Hep3B cells, confocal microscopy
Method: as §2
(§3) On confocal microscopy, it was shown that ALL*-Cy5.5 binds to the surface (arrows) of cells with different levels of GPC3 expression. […] GPC3 is highly overexpressed in Hep3B cell cytosol and membrane while moderately expressed in HepG2 cells. No GPC3 expression is observed in SK-Hep1 cells. Tubulin serves as loading control for either cytosol or membrane fractions loaded.

Hep3B xenograft = assay: In vivo NIR laparoscopic imaging of HCC xenograft tumors; design: species or system mice; details: NIR laparoscope, 2 hours after i.v. injection, n=8
Method: Human HCC cells Hep3B and SK-Hep1 were cultured in Eagle's Minimum Essential Medium (EMEM) at 37° C. in 5% CO2, and supplemented with 10% fetal bovine serum (FBS) and 1% penicillin/streptomycin. Western blotting was performed to validate expression level of GPC3. Cells were diluted in growth factor reduced (GFR) Matrigel Matrix (Corning), and injected into one flank of female (to avoid male dominance within a cage) nude athymic mice (nu/nu, Jackson Laboratory) at 4 to 6 weeks of age with weight between 20 to 25 grams. ˜5×10^6 cells were implanted per mouse.
A standard surgical laparoscope (#49003 AA, HOPKINS® II Straight Forward Telescope 0°, Karl Storz) that is ˜10 mm in diameter and has a 31 cm length rigid sheath was adapted to collect reflectance and fluorescence concurrently. Nude mice with human HCC xenograft 2 weeks post implantation were tail vein injected with 200 μL 300 μM GPC3 peptide ALL*-Cy5.5. During imaging, the mice were anesthetized with inhaled isoflurane. We first used laparoscope with white light illumination to exam the xenograft. Laparoscopic images were taken two hours post injection in both fluorescence and reflection mode simultaneously with excitation solid state diode laser (660-S, Toptica Photonics) to deliver excitation at λex=660 nm into the fiber optic light guide. Images were collected at 5 frames/sec with a laser power of 1.2 mW. Hoechst 33342 (H1399, Life Technologies) at a dose of 10 mg/kg diluted in 200 μL of PBS was delivered intravenously via a tail vein injection to stain the cell nuclei 30 minutes before sacrificing the mouse. Xenograft tumors were resected and confocal fluorescence images were collected with Cy5.5 and DAPI filters 50 μm beneath the surface using a confocal microscope (Leica SPSX Upright 2-Photon Confocal Microscope). Following imaging, resected xenografts were fixed and formalin embedded for immunohistochemistry and H&E staining as described previously.
Fluorescence images of mouse HCC xenograft taken at 2 hrs post peptide injection were registered with corresponding reflectance images taken simultaneously. The fluorescence intensity of each pixel in the image was divided by intensity of corresponding pixel in the reflectance image in order to account for the difference in distance between each pixel and the laser source. A heat map image was generated from the resulting ratios at each pixel. Image segmentation was performed automatically by custom Matlab (Mathworks) software program using Ostu's Method [Otsu, Automatica, 11(285-296): 23-27 (1975)]. Target to background ratio of each processed image was calculated by dividing the average intensity of pixels inside the segmented tumor and that of those within 30 pixels outside of segmentation outline.

SK-Hep1 cells = assay: Confocal microscopy of peptide binding to SK-Hep1 cells; format: cell-based, human
Method: as §2, §3

HepG2 human HCC cells = assay: Confocal microscopy of peptide binding to HepG2 cells; format: cell-based; details: HepG2 cells, confocal microscopy
Method: as §2, §3

T1 sequence (P51654 25-554): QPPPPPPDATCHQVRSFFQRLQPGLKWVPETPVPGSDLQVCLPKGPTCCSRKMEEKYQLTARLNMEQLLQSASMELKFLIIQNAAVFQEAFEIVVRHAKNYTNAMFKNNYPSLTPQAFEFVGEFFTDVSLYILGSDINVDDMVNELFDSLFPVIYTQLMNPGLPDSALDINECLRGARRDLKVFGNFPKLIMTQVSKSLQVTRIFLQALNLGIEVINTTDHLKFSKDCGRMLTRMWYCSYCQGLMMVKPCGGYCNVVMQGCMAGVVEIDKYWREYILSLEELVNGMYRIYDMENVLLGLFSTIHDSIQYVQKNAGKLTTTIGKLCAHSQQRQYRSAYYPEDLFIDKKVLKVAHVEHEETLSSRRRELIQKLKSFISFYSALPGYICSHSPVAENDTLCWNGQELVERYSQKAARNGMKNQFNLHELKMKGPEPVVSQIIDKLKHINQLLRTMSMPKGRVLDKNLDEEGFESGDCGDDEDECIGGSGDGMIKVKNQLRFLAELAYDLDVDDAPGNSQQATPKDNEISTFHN
purified recombinant GPC3 core protein, sequence (P51654 25-554): as above

CCN1\C(=C/C=C/C=C/C2=[N+](CCCCCC(=O)O)c3ccc4c(S(=O)(=O)O)cc(S(=O)(=O)O)cc4c3C2(C)C)C(C)(C)c2c1ccc1c(S(=O)(=O)[O-])cc(S(=O)(=O)O)cc21 [free Cy5.5 dye, reference compound]
time of peak uptake/signal post injection ([1]; i.v. injection, whole-body NIR imaging): 0.5 h

CNC(=O)c1cc(Oc2ccc(NC(=O)Nc3ccc(Cl)c(C(F)(F)F)c3)cc2)ccn1 [sorafenib, Sorafenib]
survival duration (advanced HCC; Asian patients): 6.5 months
survival duration (advanced HCC; Caucasian patients): 7.9 months
survival advantage over placebo (advanced HCC; clinic studies (SHARP)): ~3 months

ALLANHEELF
level of enrichment in biopanning [2]: highest level of enrichment

ALLANHEELFQT [ALL*]
effect of unlabeled peptide on ALL*-Cy5.5 fluorescence intensity (Hep3B cells): dose-dependent decrease
concentration of unlabeled peptide giving significant decrease in ALL*-Cy5.5 binding (Hep3B cells; unlabeled peptide 0-500 μM): ≥ 50 µM

QLE*-Cy5.5: scrambled control peptide QLELTFHANLEA (SEQ ID NO: 6) labeled with Cy5.5 via GGGSK linker (QLELTFHANLEAGGGSK-{Cy5.5}) [reference compound]
staining of xenograft sections (SK-Hep1 xenograft tumors): No staining
binding to cell surface (GPC3): minimal binding
fluorescent intensity at tumor ([3]; 2 hours after i.v. injection, n=8): 16±4
uptake/staining in tumor on optical sections ([3]; horizontal and vertical planes): Minimal staining
staining of normal mouse liver (Hep3B xenograft tumors): Minimal staining
fluorescence intensity from binding to cell surface (Hep3B human HCC cells): Minimal signal
target-to-background (T/B) ratio ([1]; 2 hours post injection, mean±SD): 1.12±0.19
target-to-background (T/B) ratio (Hep3B xenograft): 3.0±0.7
fluorescence intensity from binding to cell surface (SK-Hep1 cells): Minimal signal
fluorescence intensity from binding to cell surface (HepG2 human HCC cells): Minimal signal

QLELTFHANLEA [QLE*, scrambled (control) peptide, unlabeled, reference compound]
effect of unlabeled peptide on ALL*-Cy5.5 fluorescence intensity (Hep3B cells): no change

QRH*-Cy5.5: label printed in b35/b133 without definition; apparently a misprint for QLE*-Cy5.5 or ALL*-Cy5.5 (QRHKPREGGGSK; not fully specified (C-terminus); also: Cy5.5 label, site not given here, QRH* code without meaning)
target-to-background (T/B) ratio (Hep3B xenograft): 3.0±0.7
